# Test results published in patent US10189839B2, “Tricyclic imidazole compounds as inhibitors of tryptophan hydroxylase” (ACTELION PHARMACEUTICALS LTD, priority 2013, dated 2019).
# Target: T1, full length human TPH1 (Homo sapiens, UniProt P17752)
# T1 construct: To generate the enzyme, full length human TPH1 is cloned into the plasmid pET20b(+); made in house; host or cells: E. coli
# T1 sequence (P17752 1-444): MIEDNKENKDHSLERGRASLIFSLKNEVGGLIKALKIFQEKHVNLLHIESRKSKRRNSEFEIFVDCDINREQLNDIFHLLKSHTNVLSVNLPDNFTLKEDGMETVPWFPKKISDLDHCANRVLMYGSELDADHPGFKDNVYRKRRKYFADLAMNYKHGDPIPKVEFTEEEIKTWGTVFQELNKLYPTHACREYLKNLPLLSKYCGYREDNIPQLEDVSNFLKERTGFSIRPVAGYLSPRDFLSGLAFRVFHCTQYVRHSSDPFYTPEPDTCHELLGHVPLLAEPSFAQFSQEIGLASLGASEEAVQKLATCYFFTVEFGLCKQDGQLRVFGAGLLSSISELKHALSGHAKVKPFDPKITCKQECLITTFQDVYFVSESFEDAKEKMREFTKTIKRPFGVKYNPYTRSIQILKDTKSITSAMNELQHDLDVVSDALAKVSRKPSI
# Assay: Biochemical in vitro assay using fluorescence readout (TPH1 enzyme activity)
# Details: Table 1, mean where determined several times
# Outline: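 IC50 (mean of repeats) derived from 5-hydroxy-L-tryptophan fluorescence at 540 nm (300 nm excitation) relative to vehicle, after perchloric acid stop. Reaction: 60 min, 15° C., pH 7.6 Tris-HCl, 40 μM L-tryptophan, 100 μM 6-methyltetrahydropterine, DTT, catalase, with 40-80 nM purified full-length human TPH1 from E. coli.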
row,SMILES,IC50
1,"O=C(NC1CC1)c1ccc(OCC(=O)N2CCc3nc4n(c3C2c2ccc(OCCO)cc2F)CCCC4)c(Cl)n1 (stereo not drawn) [Example 1.28.1, 6-chloro-N-cyclopropyl-5-(2-(1-(2-fluoro-4-(2-hydroxyethoxy)phenyl)-3,4,6,7,8,9-hexahydroimidazo[1,2-a:5,4-c′]dipyridin-2(1H)-yl)-2-oxoethoxy)picolinamide]",54 nM
2,"O=C(COc1ccc(N2CCCS2(=O)=O)nc1Cl)N1CCc2nc3n(c2C1c1ccc(Cl)cc1F)CCCC3 (stereo not drawn) [Example 1.1.10, 1-(1-(4-chloro-2-fluorophenyl)-3,4,6,7,8,9-hexahydro-imidazo[1,2-a:5,4-c′]dipyridin-2(1H)-yl)-2-((2-chloro-6-(1,1-dioxidoisothiazolidin-2-yl)pyridin-3-yl)oxy)-ethanone]",17 nM
3,"CS(=O)(=O)Nc1ccc(OCC(=O)N2CCc3nc4n(c3C2c2ccc(OC(F)(F)F)cc2F)CCCC4)c(Cl)n1 (stereo not drawn) [Example 1.20.2, N-(6-chloro-5-(2-(1-(2-fluoro-4-(trifluoromethoxy)phenyl)-3,4,6,7,8,9-hexahydroimidazo[1,2-a:5,4-c′]dipyridin-2(1H)-yl)-2-oxoethoxy)pyridin-2-yl)methanesulfonamide]",37 nM
4,"CS(=O)(=O)c1ccc(OCC(=O)N2CCc3nc4n(c3C2c2ccc(Cl)cc2F)CCCC4)c(Cl)n1 (stereo not drawn) [Example 1.1.28, 1-(1-(4-chloro-2-fluorophenyl)-3,4,6,7,8,9-hexahydroimidazo[1,2-a:5,4-c′]dipyridin-2(1H)-yl)-2-((2-chloro-6-(methylsulfonyl)pyridin-3-yl)oxy)ethan-1-one]",90 nM
5,"Cc1ccc(C2c3c(nc4n3CCCC4)CCN2C(=O)COc2ccc(N3CCN(C)CC3)nc2Cl)c(F)c1F (stereo not drawn) [Example 1.9.4, 2-((2-chloro-6-(4-methylpiperazin-1-yl)pyridin-3-yl)oxy)-1-(1-(2,3-difluoro-4-methylphenyl)-3,4,6,7,8,9-hexahydroimidazo[1,2-a:5,4-c′]dipyridin-2(1H)-yl)ethanone]",18 nM
6,"CCc1nc(NS(C)(=O)=O)ccc1OCC(=O)N1CCc2nc3n(c2[C@@H]1c1sc(C)nc1C)CCCC3 [Example 1.10.16, (R)-N-(5-(2-(1-(2,4-dimethylthiazol-5-yl)-3,4,6,7,8,9-hexahydroimidazo[1,2-a:5,4-c′]dipyridin-2(1H)-yl)-2-oxoethoxy)-6-ethylpyridin-2-yl)methanesulfonamide]",6 nM
7,"COCCOc1ccc(C2c3c(nc4n3CCCC4)CCN2C(=O)COc2ccc(C(=O)NC3CC3)nc2Cl)c(F)c1 (stereo not drawn) [Example 1.27.1, 6-chloro-N-cyclopropyl-5-(2-(1-(2-fluoro-4-(2-methoxyethoxy)phenyl)-3,4,6,7,8,9-hexahydroimidazo[1,2-a:5,4-c′]dipyridin-2(1H)-yl)-2-oxoethoxy)picolinamide]",60 nM
8,"CCc1nc(NS(C)(=O)=O)ccc1OCC(=O)N1CCc2nc3n(c2C1c1ccc(C)c(F)c1F)CCCC3 (stereo not drawn) [Example 1.9.7, N-(5-(2-(1-(2,3-difluoro-4-methylphenyl)-3,4,6,7,8,9-hexahydroimidazo[1,2-a:5,4-c′]dipyridin-2(1H)-yl)-2-oxoethoxy)-6-ethylpyridin-2-yl)methanesulfonamide]",8 nM
9,"CC(C)N(C)C(=O)c1ccc(OCC(=O)N2CCc3nc4n(c3C2c2ccc(Cl)cc2F)CCCC4)c(Cl)n1 (stereo not drawn) [Example 1.1.8, 6-chloro-5-(2-(1-(4-chloro-2-fluorophenyl)-3,4,6,7,8,9-hexahydroimidazo[1,2-a:5,4-c′]dipyridin-2(1H)-yl)-2-oxoethoxy)-N-isopropyl-N-methylpicolinamide]",55 nM
10,"CCc1nc(NS(C)(=O)=O)ccc1OCC(=O)N1CCc2nc3n(c2[C@@H]1c1ccc(Cl)cc1F)CCCC3 [Example 1.1.18, (S)-N-(5-(2-(1-(4-chloro-2-fluorophenyl)-3,4,6,7,8,9-hexahydroimidazo[1,2-a:5,4-c′]dipyridin-2(1H)-yl)-2-oxoethoxy)-6-ethylpyridin-2-yl)methanesulfonamide]",8 nM
11,"CCc1nc(N2CCCS2(=O)=O)ccc1OCC(=O)N1CCc2nc3n(c2C1c1cnc(C)s1)CCCC3 (stereo not drawn) [Example 1.15.2, 2-((6-(1,1-dioxidoisothiazolidin-2-yl)-2-ethylpyridin-3-yl)oxy)-1-(1-(2-methylthiazol-5-yl)-3,4,6,7,8,9-hexahydroimidazo[1,2-a:5,4-c′]dipyridin-2(1H)-yl)ethanone]",27 nM

# Other lines, results leading:
row,IC50,SMILES
1,4 nM,"CC(=O)N1CCn2c(nc3c2C(c2ccc(C4CC4)cc2F)N(C(=O)COc2ccc(C(=O)N(C)C)nc2Cl)CC3)C1 (stereo not drawn) [Example 5.2.13, 5-(2-(7-acetyl-1-(4-cyclopropyl-2-fluorophenyl)-3,4,6,7,8,9-hexahydropyrido[4′,3′:4,5]imidazo[1,2-a]pyrazin-2(1H)-yl)-2-oxoethoxy)-6-chloro-N,N-dimethylpicolinamide]"
2,7 nM,"CC(=O)N1CCn2c(nc3c2C(c2ccc(C4CC4)cc2F)N(C(=O)COc2ccc(N4CCOCC4)cc2Cl)CC3)C1 (stereo not drawn) [Example 5.2.5, 1-(7-acetyl-1-(4-cyclopropyl-2-fluorophenyl)-3,4,6,7,8,9-hexahydropyrido[4′,3′:4,5]imidazo[1,2-a]pyrazin-2(1H)-yl)-2-(2-chloro-4-morpholinophenoxy)ethanone]"
3,6 nM,"O=C(COc1ccc(N2CCCS2(=O)=O)nc1Cl)N1CCc2nc3n(c2[C@@H]1c1ccc(Cl)cc1F)CCS3 [Example 4.1.16, (S)-1-(5-(4-chloro-2-fluorophenyl)-2,3,7,8-tetrahydrothiazolo[2′,3′:2,3]imidazo[4,5-c]pyridin-6(5H)-yl)-2-((2-chloro-6-(1,1-dioxidoisothiazolidin-2-yl)pyridin-3-yl)oxy)ethanone]"
4,329 nM,"CCc1cc(F)ccc1OCC(=O)N1CCc2nc3n(c2C1c1ncc(C2CC2)cc1F)CCNC3 (stereo not drawn) [Example 5.4.4, 1-(1-(5-cyclopropyl-3-fluoropyridin-2-yl)-3,4,6,7,8,9-hexahydropyrido[4′,3′:4,5]imidazo[1,2-a]pyrazin-2(1H)-yl)-2-(2-ethyl-4-fluorophenoxy)ethanone]"
5,6 nM,"CCc1nc(C(=O)NC2CC2)ccc1OCC(=O)N1CCc2nc3n(c2C1c1sc(C)nc1C)CCS3 (stereo not drawn) [Example 4.5.3, N-cyclopropyl-5-(2-(5-(2,4-dimethylthiazol-5-yl)-2,3,7,8-tetrahydrothiazolo[2′,3′:2,3]imidazo[4,5-c]pyridin-6(5H)-yl)-2-oxoethoxy)-6-ethylpicolinamide]"
6,7 nM,"CC(=O)N1CCn2c(nc3c2C(c2ccc(Cl)cc2F)N(C(=O)COc2ccc(N4CC(F)(F)C4)nc2Cl)CC3)C1 (stereo not drawn) [Example 5.1.1, 1-(7-acetyl-1-(4-chloro-2-fluorophenyl)-3,4,6,7,8,9-hexahydropyrido[4′,3′:4,5]imida-zo[1,2-a]pyrazin-2(1H)-yl)-2-((2-chloro-6-(3,3-difluoroazetidin-1-yl)pyridin-3-yl)oxy)ethanone]"
7,48 nM,"CC(=O)N1CCn2c(nc3c2C(c2cc(Cl)ccn2)N(C(=O)COc2ccc(N4CCOCC4)nc2Cl)CC3)C1 (stereo not drawn) [Example 5.16.1, 1-(7-acetyl-1-(4-chloropyridin-2-yl)-3,4,6,7,8,9-hexahydropyrido[4′,3′:4,5]imidazo[1,2-a]pyrazin-2(1H)-yl)-2-((2-chloro-6-morpholinopyridin-3-yl)oxy)ethanone]"
